Assay results from patent publication US12016905B2, “Pharmaceutical composition for prevention or treatment of preterm birth” (KOREA UNIVERSITY RESEARCH AND BUSINESS FOUNDATION, priority 2019, dated 2024).
“Also recorded” adds a separate entry of the source.

Key:
[1] = tested on: fibroblasts isolated from cervical cells of a mouse; experiment: Western blot of α-SMA and type I collagen in cervical fibroblasts treated with TGF-β1; type: cell-based
[2] = tested on: cervix of C57BL/6 mice; experiment: M/C ratio (α-SMA/type I collagen, Western blot) in cervical tissue after cervical excision and 3 weeks of drug administration; type: in vivo, mouse
Experimental: Sexually mature female C57BL/6 mice were used for experiments in vivo. The laboratory was maintained at a constant temperature (22 to 24° C.) with a 12-hour day/night cycle. Partial cervical tissue excision was performed at each 5-week old. Specifically, each mouse was anesthetized by inhalation of 2 to 4% isoflurane, and then the cervix thereof was grasped by using forceps, and an excision was made to a depth of 1 mm using a scalpel. In order to minimize bleeding after excision, each mouse was compressed to stop bleeding. The length of the cervix was 2.5 mm, about 40% of the cervix was excised, and the average weight of the excised tissues was 7 mg.
At the same time as the cervical tissue excision, liquid fibronectin, and SB-431542 dissolved in DMSO were injected into the cervix through the vagina using a feeding needle.
Liquid into the fibronectin (plasma) was infused cervix through the vagina daily for 3 weeks at each dose of 20 mg and 0.2 mg (20 mg, diluted 10 times, expressed as FN (X10)). SB-431542 was dissolved in 5% DMSO, and infused into the cervix through the vagina daily for 3 weeks at each dosage of 20 mg and 0.2 mg (20 mg, diluted 10 times, indicated as SB-431542 (X10). After the drug treatment for 3 weeks, samples were obtained from the proximal cervix and distal cervix regions divided in the cervical tissue (see FIG. 13).
The protein extraction method for confirming the expression of α-SMA and type I collagen (Collagen I) was as follows. After an RIPA buffer (RIPA lysis buffer, 150 mM NaCl, 1% Triton X-100, 1% SD, 0.1% SDS, 50 mM Tris-13 HCl, 2 mM EDTA) and protease inhibitor cocktail (GenDEPOT, P3100-005) were mixed, 100 ul of the mixture was added to separate cervical tissue in each region and pulverized using a homogenizer. After the pulverized product was left on ice for 40 minutes, centrifugation was performed for 15 minutes using a centrifuge (13,000 rpm, 4 degrees). Only the supernatant was used after storage in a new tube. Protein quantification was carried out by a Bradford method (Protein assay dye reagent concentrate buffer, BioRad).
Western blot method for confirming the expression of α-SMA and type I collagen was as follows. The extracted protein was loaded on a 10% SDS PAGE gel at 5 μg each and transferred to a nitrocellulose membrane. After blocking with 5% skim milk, α-smooth muscle actin antibody (1:1000, NSJ Bioreagents, V2001) as the primary antibodies, and type I collagen antibody (1:500, Abcam, ab88147), GAPDH (1:1000, Santa Cruz, sc376559) were reacted at 4° ° C.overnight, and anti-mouse IgG (CellNest, USA) as a secondary antibody was added thereto and reacted for 1 hour at room temperature, and then was developed and detected by using an ECL kit (SuperSignal West Pico PLUS Chemiluminescent Substrate, Thermo Scientific).
For oral administration (PO), the drug was administered to the esophagus through the mouth using a feeding needle at the same time as the cervical tissue excision. SB-431542 was dissolved in 5% DMSO and injected in an amount of 10 mg/kg with each 100 ul for 3 weeks.
For intraperitoneal infusion (IP), the drug was administered intraperitoneally using an insulin syringe at the same time as the cervical tissue excision. SB-431542 was dissolved in 5% DMSO and infused in an amount of 10 mg/kg with each 100 ul for 3 weeks.

[3] = tested on: fibroblasts isolated from cervical cells of a mouse; experiment: Western blot of α-SMA and type I collagen in cervical fibroblasts treated with TGF-β1; type: cell-based; remark: listed apart in the source
Experimental: (§1) The experiment process will be described with reference to FIG. 5. Cells were isolated from the cervixes of 4- to 6-week old C57BL/6 mice and subjected to primary cell culture in 60 mm dishes (step p0). After step […] is performed by culturing for 12 to 15 days, the number of fibroblasts was measured, and fibroblasts were seeded in a 6 well dish at a density of about 0.3×10^6 cells/dish, followed by secondary culture (step p2). After 1 day from the secondary culture, it was treated for 2 hours in a serum-free medium, and then treated with 10 ng/ml of TGF-β1 per dish to induce differentiation into myofibroblasts, and experimental group was treated with SB-431542, which is a TGF-1 inhibitor, at each concentration of 0, 2, 8 and 16
UM. Two days after drug treatment, cells were washed with 10× phosphate buffered saline (PBS; Affymetrix), and proteins were extracted with RIPA buffer. Western blot was performed to investigate the expression levels of α-SMA, a marker of myofibroblasts, and COLI, a marker of collagen.
As the primary antibodies, α-smooth muscle actin (1:1000) and type I collagen (1:500) antibody were reacted at 4° C. overnight, and as the secondary antibody, anti-mouse IgG (CellNest, USA) was added thereto and was detected after the reaction for 1 hour at room temperature.

[4] = tested on: fibroblasts isolated from cervical cells of a mouse; experiment: mRNA expression level of α-SMA in cervical fibroblasts treated with TGF-β1; type: cell-based; conditions: 8 μM SB-431542 with TGF-β1
Experimental: as §1

[5] = tested on: fibroblasts isolated from cervical cells of a mouse; experiment: Immunofluorescence staining for α-SMA protein in cervical fibroblasts treated with TGF-β1; type: cell-based; conditions: treated simultaneously with TGF-β1 and SB-431542
Experimental: as §1

[6] = intravaginal, 0.2 mg (X10) daily for 3 weeks, versus cervical excision group
[7] = intravaginal, 20 mg daily for 3 weeks, versus cervical excision group
[8] = plasma fibronectin 2 μg/cm2 per well together with TGF-β1

## chondroitin sulfate
[1]; 50 μg/ml chondroitin sulfate with TGF-β1
  increase in α-SMA expression by TGF-β1: slightly inhibited

## plasma fibronectin: fibronectin bovine plasma product purchased from Sigma-Aldrich; polypeptide of SEQ ID NO: 1
[2]; [6]
  M/C ratio: decreased
[2]; [7]
  M/C ratio: decreased
[1]; [8]
  collagen expression: slightly decreased
  expression level of α-SMA: decreased as much as in the control group
  ratio of α-SMA/collagen 1: reduced

## tenascin-C: drug used for wound treatment, purchased from EMD-Millipore
[1]; 2 μg/ml tenascin-C with TGF-β1
  increase in α-SMA expression by TGF-β1: slightly inhibited

## TGF-β1: transforming growth factor beta1, used to induce differentiation of fibroblasts into myofibroblasts
[3]; TGF-β1 10 ng/ml
  collagen 1 expression: no effect
[3]; TGF-β1 alone, 10 ng/ml
  expression level of α-SMA: increased

## NC(=O)c1ccc(-c2nc(-c3ccc4c(c3)OCO4)c(-c3ccccn3)[nH]2)cc1 [SB-431542, 4-(5-benzol [1,3]dioxol-5-yl-4-pyrldin-2-yl-1H-imidazol-2-yl)-benzamide]
[3]; 8 μM SB-431542 with 10 ng/ml TGF-β1, two days after treatment
  expression of α-SMA protein: decreased; also recorded: significantly reduced
[3]; SB-431542 with TGF-β1
  collagen 1 expression: no effect
[4]
  mRNA expression level of α-SMA: no significant change
[5]
  fluorescence detection of α-SMA: reduced
[2]; intraperitoneal, 10 mg/kg daily for 3 weeks
  M/C ratio: lower than that of the cervical excision group
[2]; [6]
  M/C ratio: no significant change
[2]; [7]
  M/C ratio: no significant change
[2]; oral administration, 10 mg/kg daily for 3 weeks
  M/C ratio: lower than that of the cervical excision group

B1: TGF-β3: drug used for wound treatment, purchased from Sigma-Aldrich (protein, UniProt P10600 301-412, looked up)
Transforming growth factor …: ALDTNYCFRNLEENCCVRPLYIDFRQDLGWKWVHEPKGYYANFCSGPCPYLRSADTTHSTVLGLYNTLNPEASASPCCVPQDLEPLTILYYVGRTPKVEQLSNMVVKSCKCS
modifications: Transforming growth factor beta-3
notes: drug used for wound treatment, purchased from Sigma-Aldrich
[1]; 10 μg/ml TGF-β3 with TGF-β1
  increase in α-SMA expression by TGF-β1: slightly inhibited
